Where “and” joins values, the source holds several entries; their conditions need not be identical. Identical values can stand only once.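 A five-concentration, 48-hour dose response in 96-well plates underlies each endpoint, interpolated linearly between surrounding concentrations. Abbreviation: GI50, concentration required for 50% inhibition of growth. The concentration for full growth arrest is given as TGI.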
Experiments:
Experiment in all cases: NCI anticancer screen, dose series, 48 h
SNB-19 CNS = tested on: SNB-19 CNS
OVCAR-5 ovarian = tested on: OVCAR-5 ovarian
NCI-H460 lung = tested on: NCI-H460 lung
SF-295 CNS = tested on: SF-295 CNS
UACC-62 melanoma = tested on: UACC-62 melanoma
ACHN renal = tested on: ACHN renal
MDA-MB-435 = tested on: MDA-MB-435
HS 578T breast = tested on: HS 578T breast
PC-3 prostate = tested on: PC-3 prostate
BT-549 breast = tested on: BT-549 breast

## COc1cc(/C=C/C(=O)c2cccc(-n3cc(-c4ccc(Cl)cc4)[nH]c3=O)c2)cc(OC)c1OC
SNB-19 CNS
  GI50: 16.1 µM
  TGI: 37 µM
OVCAR-5 ovarian
  GI50: 3.11 µM
  TGI: 10.2 µM
NCI-H460 lung
  GI50: 3.74 µM
  TGI: 11.8 µM
SF-295 CNS
  GI50: 24.3 µM
  TGI: > 100 µM
UACC-62 melanoma
  GI50: 8.88 µM
  TGI: 21.4 µM
ACHN renal
  GI50: 7.17 µM
  TGI: 19.5 µM
MDA-MB-435
  GI50: 3.63 µM
  TGI: > 100 µM
HS 578T breast
  GI50: 5.96 µM
  TGI: > 100 µM
PC-3 prostate
  GI50: 16.5 µM
  TGI: > 100 µM
BT-549 breast
  GI50: 12.3 µM
  TGI: 79.9 µM

## O=C1OC(C(O)CO)C(O)=C1O (stereo not given)
SNB-19 CNS
  GI50: > 10000 µM
  TGI: > 10000 µM
OVCAR-5 ovarian
  GI50: 1790 µM and 1730 µM
  TGI: 3400 µM and 3310 µM
NCI-H460 lung
  GI50: > 10000 µM
  TGI: > 10000 µM
SF-295 CNS
  GI50: 6830 µM and > 4590 µM
  TGI: > 10000 µM
UACC-62 melanoma
  GI50: 1670 µM and 2050 µM
  TGI: 3050 µM and > 5130 µM
ACHN renal
  GI50: 1540 µM and 1610 µM
  TGI: 2940 µM and 3060 µM
MDA-MB-435
  GI50: 203 µM and 208 µM
  TGI: 372 µM and 374 µM
HS 578T breast
  GI50: 2990 µM and > 10000 µM
  TGI: 7960 µM and > 10000 µM
PC-3 prostate
  GI50: 2190 µM and > 4180 µM
  TGI: 5670 µM and > 5820 µM
BT-549 breast
  GI50: 2190 µM and 2510 µM
  TGI: 4330 µM and > 5710 µM

## Cc1cc(C#Cc2ccc(C(C)(C)C)cc2)ccc1-n1c(/C=C/c2ccc(O)cc2O)nc2ccccc2c1=O
SNB-19 CNS
  GI50: 7.9 µM
  TGI: 22.5 µM
OVCAR-5 ovarian
  GI50: 4.25 µM
  TGI: 16.4 µM
NCI-H460 lung
  GI50: 1.82 µM
  TGI: 3.75 µM
SF-295 CNS
  GI50: 3.83 µM
  TGI: 16.5 µM
UACC-62 melanoma
  GI50: 3.52 µM
  TGI: 13.5 µM
ACHN renal
  GI50: 3.26 µM
  TGI: 13.4 µM
MDA-MB-435
  GI50: 3.08 µM
  TGI: 12.3 µM
HS 578T breast
  GI50: 2.2 µM
  TGI: 5.87 µM
PC-3 prostate
  GI50: 3.67 µM
  TGI: 16.2 µM
BT-549 breast
  GI50: 8.6 µM
  TGI: 33.1 µM

## COc1cc2nc(-c3cc(F)ccc3O)nc(N[C@@H]3CNC[C@H]3C(C)(C)O)c2cc1OC
SNB-19 CNS
  GI50: 1.91 µM
  TGI: 4.02 µM
OVCAR-5 ovarian
  GI50: 1.5 µM
  TGI: 3.67 µM
NCI-H460 lung
  GI50: 1.83 µM
  TGI: 3.47 µM
SF-295 CNS
  GI50: 1.98 µM
  TGI: 4.14 µM
UACC-62 melanoma
  GI50: 1.78 µM
  TGI: 3.41 µM
ACHN renal
  GI50: 1.75 µM
  TGI: 3.38 µM
MDA-MB-435
  GI50: 1.65 µM
  TGI: 3.03 µM
HS 578T breast
  GI50: 1.72 µM
  TGI: 5.74 µM
PC-3 prostate
  GI50: 2.09 µM
  TGI: 5.7 µM
BT-549 breast
  GI50: 1.64 µM
  TGI: 3.09 µM

## OCCNC1c2cc(Cl)ccc2-c2c(Cl)cc(Cl)cc21 (stereo not given)
SNB-19 CNS
  TGI: > 100 µM
OVCAR-5 ovarian
  TGI: > 100 µM
NCI-H460 lung
  TGI: 63.4 µM
SF-295 CNS
  TGI: > 100 µM
UACC-62 melanoma
  TGI: > 100 µM
ACHN renal
  TGI: 67 µM
MDA-MB-435
  TGI: > 100 µM
HS 578T breast
  TGI: > 100 µM
PC-3 prostate
  TGI: 77.3 µM
BT-549 breast
  TGI: > 100 µM

## CCN(CC)CCCCCCNc1cc(OC)cc2cccnc12
SNB-19 CNS
  GI50: 8.17 µM
  TGI: 30.8 µM
OVCAR-5 ovarian
  GI50: 6.74 µM
  TGI: 22.7 µM
NCI-H460 lung
  GI50: 2 µM
  TGI: 3.79 µM
SF-295 CNS
  GI50: 11.4 µM
  TGI: 26.5 µM
UACC-62 melanoma
  GI50: 2.29 µM
  TGI: 5.16 µM
ACHN renal
  GI50: 1.84 µM
  TGI: 3.56 µM
MDA-MB-435
  GI50: 1.84 µM
  TGI: 3.63 µM
HS 578T breast
  GI50: 12.3 µM
  TGI: 42.3 µM
PC-3 prostate
  GI50: 2.06 µM
  TGI: 4.1 µM
BT-549 breast
  GI50: 17.4 µM
  TGI: 33.6 µM

## Cc1ccc(-c2nc([P+](c3ccccc3)(c3ccccc3)c3ccccc3)c(S(=O)(=O)c3ccc(C)cc3)o2)cc1
SNB-19 CNS
  GI50: 1.64 µM
  TGI: 3.3 µM
OVCAR-5 ovarian
  GI50: 1.58 µM
  TGI: 3.18 µM
NCI-H460 lung
  GI50: 1.64 µM
  TGI: 3.43 µM
SF-295 CNS
  GI50: 2.91 µM
  TGI: 10.7 µM
UACC-62 melanoma
  GI50: 1.53 µM
  TGI: 2.89 µM
ACHN renal
  GI50: 1.46 µM
  TGI: 2.78 µM
MDA-MB-435
  GI50: 1.56 µM
  TGI: 3.04 µM
HS 578T breast
  GI50: 1.7 µM
  TGI: 5.31 µM
PC-3 prostate
  GI50: 1.43 µM
  TGI: 3.28 µM
BT-549 breast
  GI50: 1.61 µM
  TGI: 3.1 µM

## Nc1nc(Nc2ccccc2SSc2ccccc2Nc2nc(N)nc(C(Cl)(Cl)Cl)n2)nc(C(Cl)(Cl)Cl)n1
SNB-19 CNS
  GI50: 4.41 µM
  TGI: 17.8 µM
OVCAR-5 ovarian
  GI50: 4.75 µM
  TGI: 18.7 µM
NCI-H460 lung
  GI50: 4 µM
  TGI: 14.7 µM
SF-295 CNS
  GI50: 1.99 µM
  TGI: 4.75 µM
UACC-62 melanoma
  GI50: 2.94 µM
  TGI: 11.4 µM
ACHN renal
  GI50: 1.7 µM
  TGI: 3.2 µM
MDA-MB-435
  GI50: 6.39 µM
  TGI: 24.9 µM
HS 578T breast
  GI50: 5.44 µM
  TGI: > 100 µM
PC-3 prostate
  GI50: 3.56 µM
  TGI: 18.6 µM
BT-549 breast
  GI50: 3.34 µM
  TGI: 35.7 µM

## O=C(O)c1cccc(C(=O)O)c1S(=O)Cc1ccccc1 (stereo not given)
SNB-19 CNS
  TGI: > 100 µM
OVCAR-5 ovarian
  TGI: > 100 µM
NCI-H460 lung
  TGI: > 100 µM
SF-295 CNS
  TGI: > 100 µM
UACC-62 melanoma
  TGI: > 100 µM
ACHN renal
  TGI: > 100 µM
MDA-MB-435
  TGI: > 100 µM
HS 578T breast
  TGI: > 100 µM
PC-3 prostate
  TGI: > 100 µM
BT-549 breast
  TGI: > 100 µM

## COc1ncnc(NS(=O)(=O)c2ccc(N=C3C(=O)N(CN4CCN(c5c(F)cc6c(=O)c(C(=O)O)cn(C7CC7)c6c5OC)CC4C)c4ccc(Br)cc43)cc2)c1OC (stereo not given)
SNB-19 CNS
  GI50: 19.4 µM
  TGI: > 50 µM
OVCAR-5 ovarian
  GI50: 5 µM
  TGI: > 50 µM
NCI-H460 lung
  GI50: 3.99 µM
  TGI: 19.5 µM
SF-295 CNS
  GI50: 20.8 µM
  TGI: > 50 µM
UACC-62 melanoma
  GI50: 2.61 µM
  TGI: 11.3 µM
ACHN renal
  GI50: 22.5 µM
  TGI: > 50 µM
MDA-MB-435
  GI50: 7.07 µM
  TGI: 33.2 µM
HS 578T breast
  GI50: 12.1 µM
  TGI: > 50 µM
PC-3 prostate
  GI50: 6.76 µM
  TGI: 29.4 µM
BT-549 breast
  GI50: 6.57 µM
  TGI: 19.9 µM
